Reference: ChEMBL document CHEMBL1131332, “(-)-6-Chloro-2-[(1-furo[2, 3-c]pyridin-5-ylethyl)thio]-4-pyrimidinamine, PNU-142721, a new broad spectrum HIV-1 non-nucleoside reverse transcriptase inhibitor” (J Med Chem, 1998)

Columns and labels:
[1] = target: Human immunodeficiency virus type 1 reverse transcriptase (Human immunodeficiency virus 1, UniProt Q72547, Y181C); test: Inhibitory activity against Y181C mutant HIV-1 reverse transcriptase
[2] = test system: Human immunodeficiency virus 1; test: In vitro antiviral activity against NNRTI-resistant DLVR-MF (P236L) HIV-1 variant; type: functional, organism-based; conditions: Human immunodeficiency virus 1, IIIB
[3] = test system: Human immunodeficiency virus 1; test: Inhibition of p24 production in NNRTI-resistant DLVR-MF (P236L) HIV-1 variant at concentration 0.01 um; type: functional
[4] = target: Human immunodeficiency virus type 1 reverse transcriptase (Human immunodeficiency virus 1, UniProt Q72547, P236L); test: Inhibitory activity against P236L mutant HIV-1 reverse transcriptase
[5] = test system: Human immunodeficiency virus 1; test: In vitro antiviral activity against NNRTI-resistant L-697661R-IIIB (Y181C) HIV-1 variant; type: functional, organism-based; conditions: Human immunodeficiency virus 1, IIIB
[6] = target: Human immunodeficiency virus type 1 reverse transcriptase (Human immunodeficiency virus 1, UniProt Q72547); test: Inhibitory activity against wild type HIV-1 reverse transcriptase (WT-RT)
[7] = test system: Human immunodeficiency virus 1; test: Inhibition of p24 production in NNRTI-resistant L-697661R-IIIB (Y181C) HIV-1 variant at concentration 3 um; type: functional
[8] = Pharmacokinetic parameter (CL/F ) was evaluated in Spargue-Dawley rat when given peroral at dose 30 mg/kg; type: ADME, organism-based; set-up: dose 30 mg/kg, route oral; conditions: Sprague-Dawley, in vivo, po
[9] = test system: Human immunodeficiency virus 1; test: In vitro antiviral activity against NNRTI-resistant DLVR-IIIB (L100I) HIV-1 variant; type: functional, organism-based; conditions: Human immunodeficiency virus 1, IIIB
[10] = Pharmacokinetic parameter (CL/F) was evaluated in Spargue-Dawley rat when given peroral at dose 80 mg/kg; type: ADME, organism-based; set-up: dose 80 mg/kg, route oral; conditions: Sprague-Dawley, in vivo, po
[11] = Pharmacokinetic parameter (Absolute oral bioavailability) was evaluated in Spargue-Dawley rat when given peroral at dose 30 mg/kg; type: ADME, organism-based; conditions: Sprague-Dawley, in vivo
[12] = Pharmacokinetic parameter (Cmax ) was evaluated in Spargue-Dawley rat when given peroral at dose 80 mg/kg; type: ADME, organism-based; set-up: dose 80 mg/kg, route oral; conditions: Sprague-Dawley, in vivo, po
[13] = Pharmacokinetic parameter (Vss ) was evaluated in Spargue-Dawley rat when given intravenously at dose 15 mg/kg; type: ADME, organism-based; set-up: dose 15 mg/kg, route intravenous; conditions: Sprague-Dawley, in vivo, iv, read-out: Vss
[14] = Pharmacokinetic parameter (Absolute oral bioavailability) was evaluated in Spargue-Dawley rat when given peroral at dose 80 mg/kg; type: ADME, organism-based; conditions: Sprague-Dawley, in vivo
[15] = test system: Human immunodeficiency virus 1; test: In vitro antiviral activity against NNRTI-resistant R88703R-IIIB (Y181C) HIV-1 variant; type: functional, organism-based; conditions: Human immunodeficiency virus 1, IIIB
[16] = target: Human immunodeficiency virus type 1 reverse transcriptase (Human immunodeficiency virus 1, UniProt Q72547, E233V); test: Inhibitory activity against E233V mutant HIV-1 reverse transcriptase
[17] = Pharmacokinetic parameter (tmax ) was evaluated in Spargue-Dawley rat when given peroral at dose 30 mg/kg; type: ADME, organism-based; set-up: dose 30 mg/kg, route oral; conditions: Sprague-Dawley, in vivo, po
[18] = Apparent terminal disposition half-life (t1/2) was evaluated in Spargue-Dawley rat when given peroral at dose 80 mg/kg; type: ADME, organism-based; set-up: dose 80 mg/kg, route oral; conditions: Sprague-Dawley, in vivo, po
[19] = Apparent terminal disposition half-life (t1/2 ) was evaluated in Spargue-Dawley rat when given peroral at dose 30 mg/kg; type: ADME, organism-based; set-up: dose 30 mg/kg, route oral; conditions: Sprague-Dawley, in vivo, po
[20] = Pharmacokinetic parameter (tmax) was evaluated in Spargue-Dawley rat when given peroral at dose 80 mg/kg; type: ADME, organism-based; set-up: dose 80 mg/kg, route oral; conditions: Sprague-Dawley, in vivo, po
[21] = Pharmacokinetic parameter (Cmax ) was evaluated in Spargue-Dawley rat when given intravenously at dose 15 mg/kg; type: ADME, organism-based; set-up: dose 15 mg/kg, route intravenous; conditions: Sprague-Dawley, in vivo, iv
[22] = Pharmacokinetic parameter (Cmax ) was evaluated in Spargue-Dawley rat when given peroral at dose 30 mg/kg; type: ADME, organism-based; set-up: dose 30 mg/kg, route oral; conditions: Sprague-Dawley, in vivo, po
[23] = target: Human immunodeficiency virus type 1 reverse transcriptase (Human immunodeficiency virus 1, UniProt Q72547, L100I); test: Inhibitory activity against L100I mutant HIV-1 reverse transcriptase
[24] = Pharmacokinetic parameter (tmax ) was evaluated in Spargue-Dawley rat when given intravenously at dose 15 mg/kg; type: ADME, organism-based; set-up: dose 15 mg/kg, route intravenous; conditions: Sprague-Dawley, in vivo, iv
[25] = target: Human immunodeficiency virus type 1 reverse transcriptase (Human immunodeficiency virus 1, UniProt Q72547, Y188H); test: Inhibitory activity against Y188H mutant HIV-1 reverse transcriptase
[26] = Apparent terminal disposition half-life (t1/2 ) was evaluated in Spargue-Dawley rat when given intravenously at dose 15 mg/kg; type: ADME, organism-based; set-up: dose 15 mg/kg, route intravenous; conditions: Sprague-Dawley, in vivo, iv
[27] = test system: Human immunodeficiency virus 1; test: In vitro antiviral activity against NNRTI-resistant IIIB (WT) HIV-1 variant; type: functional, organism-based; conditions: Human immunodeficiency virus 1, IIIB

| Structure (SMILES) | IC50 [1] | IC50 [2] | IC50 [4] | IC50 [5] | IC50 [6] | IC50 [9] | IC50 [15] | IC50 [16] | IC50 [23] | IC50 [25] | IC50 [27] | other results |
| --- | --- | --- | --- | --- | --- | --- | --- | --- | --- | --- | --- | --- |
| C[C@@H](Sc1nc(N)cc(Cl)n1)c1cc2ccoc2cn1 | > 50000 nM | > 10 nM | 25 nM | > 3000 nM | 85 nM |  |  |  |  |  |  | Inhibition [3]: 0%; Inhibition [7]: 0% |
| C[C@H](Sc1nc(N)cc(Cl)n1)c1cc2ccoc2cn1 | 179 nM | 8 nM | 22 nM | 1100 nM | 20 nM | 70 nM | 170 nM | 17 nM | 39 nM | 77 nM | 1 nM | CL/F [8]: 7.1 mL/min/kg; CL/F [10]: 7.1 mL/min/kg; bioavailability [11]: 94%; Cmax [12]: 103 µM; Vd [13]: 0.55 L/kg; bioavailability [14]: 94%; Tmax [17]: 1.4 h; half-life [18]: 1.5 h; half-life [19]: 0.78 h; Tmax [20]: 3.8 h; Cmax [21]: 123 µM; Cmax [22]: 52 µM; Tmax [24]: 1.98 min; half-life [26]: 0.7 h |
| CC(Sc1nc(N)cc(Cl)n1)c1cc2ccoc2cn1 (configuration not stated) | 360 nM | 10 nM | 22 nM | 2400 nM | 24 nM | 60 nM | 170 nM | 44 nM | 44 nM | 55 nM | 2 nM |  |
| CC(=O)c1ccccc1NC(C(N)=O)c1c(Cl)cccc1Cl (configuration not stated) |  | 80 nM |  | > 10000 nM |  | 6500 nM | > 10000 nM |  |  |  | 150 nM |  |
| CC(C)Nc1cccnc1N1CCN(C(=O)c2cc3cc(NS(C)(=O)=O)ccc3[nH]2)CC1 [DELAVIRDINE] |  | > 10000 nM |  |  |  | > 10000 nM | 1000 nM |  |  |  | 50 nM |  |
| CCc1cc(NCc2nc3c(Cl)ccc(Cl)c3o2)c(O)nc1C [L-697661] |  | 430 nM |  | > 10000 nM |  | 4000 nM | 7700 nM |  |  |  | 110 nM |  |
